The source of these data is patent publication US11667631B2, “FGFR4 inhibitor, preparation method therefor, and applications thereof” (Jiangsu Hansoh Pharmaceutical Group Co., Ltd., priority 2016, dated 2023).

Series [1] can be described thus: Pharmacokinetic (PK) analysis in rats. In kind it is in vivo, Sprague Dawley (SD) rats. The conditions noted are these: SD rats, single intragastric administration, 5 mg/kg; for Peak Time tmax: (sampling in hours); for AUC(0-t) / AUC(0-inf) / half-life / MRT / Cmax: Sprague-Dawley, rat, plasma, po; for AUC(0-t): read-out: Area Under Curve AUC0-t; for AUC(0-inf): read-out: Area Under Curve AUC0-∞; for half-life: read-out: Half-Time t1/2 (converted); for MRT: read-out: Mean Residence Time MRT; for Cmax: read-out: Plasma Concentration Cmax. The protocol: 1) 0.2 ml of intravenous blood was collected and placed in a K2EDTA test tube. The blood was centrifuged at room temperature at the speed of 1000˜3000×g for 5˜20 minutes to isolate the plasma, which was then stored at −80° C.
2) 160 μL of acetonitrile was added to 40 μL of plasma sample for precipitation, and then the mixture was centrifuged at the speed of 500˜2000×g for 5˜20 minutes.
3) 100 μL of treated solution was taken, and the concentration of the test compound was analyzed by LC/MS/MS. The LC/MS/MS analytical instrument was AB Sciex API 4000. • Liquid chromatography analysis: • Condition of Liquid chromatography: Shimadzu LC-20AD pump • Chromatographic column: phenomenex Gemiu 5 um C18 50×4.6 mm • Mobile phase: Solution A is 0.1% formic acid aqueous solution, and Solution B is acetonitrile • Flow rate: 0.8 mL/min • Elution time: 0-3.5 minutes, the eluent was used as follows: […]

In the next series the target is FGFR1 kinase (Homo sapiens (Human), UniProt P11362). As to the kind of experiment: Enzymologic experiment of FGFR1 (TR-FRET). In kind it is biochemical. The conditions noted are these: FGFR1 kinase activity. The protocol:
In this experiment, the inhibitory effect of the compounds on FGFR1 kinase activity was tested by a fluorescence resonance energy transfer (TR-FRET) method, and the half maximal inhibitory concentration (IC50) of the compounds on the FGFR1 kinase activity was determined.
1) 1˜5 μL of FGFR1 enzyme solution was added to a 384-well plate, and the final concentration of the enzyme was 0.1˜5 nM.
2) 1˜5 μL of diluted solution in gradient of the compound was added.
3) 1˜5 μL of a substrate mixture containing substrate polypeptide with a final concentration of 5˜50 nM and ATP with a final concentration of 10˜200 μM was added.
4) The mixture was incubated for 0.5˜3 hours at room temperature.
5) 10 μL of EDTA and a test solution comprising labeled antibody were added, and the plate was incubated for 1 hour at room temperature.
6) The fluorescence signal values of each plate were determined by a microplate reader at 665 nm.
7) The inhibition rates were calculated according to the fluorescence signal values.
8) The IC50 of the compound was obtained by curve fitting according to the inhibition rates at different concentrations, and the enzymatic activity of the specific example compounds is shown in Table 1.

Another series has as its system SK-HEP-1 cells. As to the kind of experiment: Inhibition of SK-HEP-1 cell proliferation (CellTiter-Glo). In kind it is cell-based. As to conditions: Homo sapiens, SK-HEP1, 72 h, read-out: SK-HEP-1 IC50. Here is the method:
In this experiment, the inhibitory effect of the compounds on SK-HEP-1 cell proliferation was tested by a CellTiter-Glo method, and the half maximal inhibitory concentration (IC50) of the compounds on the activity of cell proliferation was determined.
1) A 96-well cell culture plate was seeded with 50˜100 μL of SK-HEP-1 cell suspension at a density of 1˜5×10^4 cells/ml. The culture plate was incubated in an incubator for 16˜24 hours (37° C., 5% CO2).
(§1) 2) Different concentrations of the test compound in a gradient dilution were added to the cells in the culture plate. The culture plate was incubated in an incubator for 72 hours (37° C., 5% CO2).
(§2) 3) 50˜100 μL of CellTiter-Glo reagent were added to each well. Then, the culture plate was shaken or left to stand for 5˜30 minutes at room temperature.
(§3) 4) The chemiluminescence signal values of each plate were determined by a microplate reader.
(§4) 5) The inhibition rates were calculated according to the chemiluminescence signal values.
(§5) 6) The IC50 of the compound was obtained by curve fitting according to the inhibition rates at different concentrations, and the cell activity of the specific example compounds is shown in Table 2.
(In general: ATP-based viability assays read luminescence as a measure of living cells.)

Another series deals with Hep 3B cells. As to the kind of experiment: Inhibition of Hep 3B cell proliferation (CellTiter-Glo). In kind it is cell-based. The protocol: In this experiment, the inhibitory effect of the compounds on Hep 3B cell proliferation was tested by a CellTiter-Glo method, and the half maximal inhibitory concentration (IC50) of the compounds on the activity of cell proliferation was determined.
1) A 96-well cell culture plate was seeded with 50˜100 μL of Hep 3B cell suspension at a density of 1˜5×10^4 cells/ml. The culture plate was incubated in an incubator for 16˜24 hours (37° C., 5% CO2).
as §1, §2, §3, §4

The subject of the next series is HuH-7 cells. As to the kind of experiment: Inhibition of HuH-7 cell proliferation (CellTiter-Glo). In kind it is cell-based. The conditions noted are these: Homo sapiens, Huh-7, 72 h, read-out: HuH-7 IC50. Here is the method:
In this experiment, the inhibitory effect of the compounds on HuH-7 cell proliferation was tested by a CellTiter-Glo method, and the half maximal inhibitory concentration (IC50) of the compounds on the activity of cell proliferation was determined.
1) A 96-well cell culture plate was seeded with 50˜100 μL of HuH-7 cell suspension at a density of 1˜5×10^4 cells/ml. The culture plate was incubated in an incubator for 16˜24 hours (37° C., 5% CO2).
as §1
3) 50˜100 μL of CellTiter-Glo reagent was added to each well. Then, the culture plate was shaken or left to stand for 5˜30 minutes at room temperature.
as §3, §4, §5

Where [2] appears, read: Homo sapiens, Hep3B, 72 h, read-out: Hep 3B IC50, Hep 3B cell proliferation, 72 hours, CellTiter-Glo.

Structures are written as SMILES. Like-named read-outs stand apart in the source and are kept apart here.

Sequence of FGFR1 kinase (P11362 22-822): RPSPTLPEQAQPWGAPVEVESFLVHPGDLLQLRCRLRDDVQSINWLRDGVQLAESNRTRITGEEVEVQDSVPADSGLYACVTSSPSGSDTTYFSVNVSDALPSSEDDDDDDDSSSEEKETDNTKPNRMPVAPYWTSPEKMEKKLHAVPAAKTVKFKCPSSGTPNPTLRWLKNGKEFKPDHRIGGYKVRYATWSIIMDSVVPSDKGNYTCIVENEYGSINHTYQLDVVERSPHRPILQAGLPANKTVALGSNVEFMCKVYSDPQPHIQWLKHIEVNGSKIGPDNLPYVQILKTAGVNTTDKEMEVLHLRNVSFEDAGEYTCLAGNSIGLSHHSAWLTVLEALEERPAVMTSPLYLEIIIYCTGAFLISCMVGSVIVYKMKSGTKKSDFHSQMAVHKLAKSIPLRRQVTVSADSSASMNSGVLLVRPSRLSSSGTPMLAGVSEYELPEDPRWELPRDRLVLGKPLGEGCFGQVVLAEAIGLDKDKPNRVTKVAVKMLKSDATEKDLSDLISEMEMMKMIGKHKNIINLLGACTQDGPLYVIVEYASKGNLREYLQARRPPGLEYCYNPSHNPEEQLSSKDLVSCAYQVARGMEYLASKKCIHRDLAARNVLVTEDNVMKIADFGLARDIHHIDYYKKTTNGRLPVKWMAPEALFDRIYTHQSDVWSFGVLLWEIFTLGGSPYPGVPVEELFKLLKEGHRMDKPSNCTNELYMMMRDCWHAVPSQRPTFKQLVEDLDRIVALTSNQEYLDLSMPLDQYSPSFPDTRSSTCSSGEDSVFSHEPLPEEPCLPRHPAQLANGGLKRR

For orientation: MRT means the average time that molecules of a dose stay in the body. In the case of `COC1CCN(c2cc(NC(=O)N3CCCc4cc(CN5CCOCC5=O)c(C=O)nc43)ncc2C#N)C1` (stereo not drawn) [Example 4, N-(5-Cyano-4-(3-methoxypyrrolidin-1-yl)pyridin-2-yl)-7-formyl-6-((3-carbonylmorpholino)methyl)-3,4-dihydro-1,8-naphthyridin-1(2H)-carboxamide], in series [1], the Peak Time tmax amounted to 2 h, the AUC(0-t) turned out to be 8740 ng·h/mL, the AUC(0-inf) was found to be 8740 ng·h/mL and the half-life is 0.61 h. Besides, in series [1], the MRT was determined as 3.07 h and the Cmax stood at 3370 ng/mL. The IC50 at FGFR1 kinase is greater than 10000 nM. In the series on SK-HEP-1 cells, the IC50 is greater than 10000 nM. For the same compound, the IC50 in the series with Hep 3B cells (setting [2]) was 2.5 nM. For the same compound, the IC50 in the series with HuH-7 cells worked out at 18.4 nM.

On to `COCC1(Nc2cc(NC(=O)N3CCCc4cc(CN5CCOCC5=O)c(C=O)nc43)ncc2C#N)CC1` [Example 11], for which, in series [1], the Peak Time tmax came to 2 h, the AUC(0-t) was 3890 ng·h/mL, the AUC(0-inf) came out at 3960 ng·h/mL and the half-life is 1.16 h. For the same compound, in series [1], the MRT is 2.68 h and the Cmax was found to be 1540 ng/mL. The compound further came in with an IC50 at FGFR1 kinase greater than 10000 nM. Also, the IC50 with SK-HEP-1 cells was greater than 10000 nM. For the same compound, the IC50 in the series with Hep 3B cells (setting [2]) worked out at 8.4 nM. Further, the IC50 in the series with HuH-7 cells stood at 12.4 nM.

`COCCSc1cc(NC(=O)N2CCCc3cc(CN4CCOCC4=O)c(C=O)nc32)ncc1C#N` [Example 13, N-(5-Cyano-4-((2-methoxyethyl)thio)pyridin-2-yl)-7-formyl-6-((3-carbonylmorpholino)methyl)-3,4-dihydro-1,8-naphthyridin-1(2H)-carboxamide]: in series [1], the Peak Time tmax came out at 2 h, the AUC(0-t) worked out at 3510 ng·h/mL, the AUC(0-inf) was 3570 ng·h/mL and the half-life was 1.16 h. In series [1], the MRT is 2.8 h and the Cmax was determined as 1200 ng/mL. This compound displayed an IC50 against FGFR1 kinase greater than 10000 nM. The IC50 with SK-HEP-1 cells was greater than 10000 nM. Also, the IC50 with Hep 3B cells (setting [2]) is 20.8 nM. In addition, the IC50 with HuH-7 cells amounted to 32.3 nM.

As for `CO[C@H]1CCN(c2cc(NC(=O)N3CCCc4cc(CN5CCCOC5=O)c(C=O)nc43)ncc2C#N)C1` [Example 50, (S)-N-(5-Cyano-4-(3-methoxypyrrolidin-1-yl)pyridin-2-yl)-7-formyl-6-((2-carbonyl-1,3-oxazinan-3-yl)methyl)-3,4-dihydro-1,8-naphthyridin-1(2H)-carboxamide], the IC50 against FGFR1 kinase was greater than 10000 nM; in the series on SK-HEP-1 cells, greater than 10000 nM; in the series on Hep 3B cells (setting [2]) it was 5.5 nM; in the series with HuH-7 cells it was 15.3 nM.

`COc1ccncc1Nc1cc(NC(=O)N2CCCc3cc(CN4CCOCC4=O)c(C=O)nc32)ncc1C#N` [Example 58, N-(5-Cyano-4-((4-methoxypyridin-3-yl)amino)pyridin-2-yl)-7-formyl-6-((3-carbonylmorpholino)methyl)-3,4-dihydro-1,8-naphthyridin-1(2H)-carboxamide]: the IC50 was greater than 10000 nM on FGFR1 kinase, greater than 10000 nM in the series with SK-HEP-1 cells, 6.9 nM in the series on Hep 3B cells (setting [2]) and 20.7 nM in the series with HuH-7 cells.

In the case of `CO[C@H]1CCOCC1Oc1cc(NC(=O)N2CCCc3cc(CN4CCOCC4=O)c(C=O)nc32)ncc1C#N` (stereo partly drawn) [Example 68, N-(5-Cyano-4-(((3,4)-trans-4-methoxytetrahydro-2H-pyran-3-yl)oxy)pyridin-2-yl) -7-formyl-6-((3-carbonylmorpholino)methyl)-3,4-dihydro-1,8-naphthyridin-1(2H)-carboxamide], the IC50 is greater than 10000 nM at FGFR1 kinase; greater than 10000 nM in the series on SK-HEP-1 cells; 10.9 nM with Hep 3B cells (read-out: Hep 3B IC50, Hep 3B cell proliferation, 72 hours, CellTiter-Glo); 40.8 nM with HuH-7 cells.
